Consider 9 compounds from ChEMBL document CHEMBL3137667, “[Drug-induced liver injury; fourteenth updated edition of the bibliographic database of liver injuries and related drugs]” (Gastroenterol Clin Biol, 2004).

The nature of data set [1]: Highest frequency of moderate liver toxicity observed during clinical trials, expressed as a percentage. [column '% BIOL' in source]. As to conditions: human.
The nature of data set [2]: Highest frequency of acute liver toxicity observed during clinical trials, expressed as a percentage. [column '% AIGUE' in source]. The conditions noted are these: human.
The conditions of data set [3]: human, serum.
The conditions of data set [4]: human, serum. This is another data set of the same source.
For data set [5] the following is noted: human.
For data set [6] the following is noted: human. This is another data set of the same source.
The conditions of data set [7]: human. This is another data set of the same source.
For data set [8] the following is noted: human, serum, 4383 h.
The conditions of data set [9]: human. This is another data set of the same source.
The conditions of data set [10]: human. The source holds these as a separate data set.
For data set [11] the following is noted: human. This is another data set of the same source.
For data set [12] the following is noted: human. This is another data set of the same source.
For data set [13] the following is noted: human. This is another data set of the same source.
The conditions of data set [14]: human. This is another data set of the same source.
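Wherever Hepatotoxicity (association with vascular disease) is given: count of indexed literature references reporting vascular liver injury in humans, e.g. peliosis hepatitis, hepatic veno-occlusive disease or Budd-Chiari syndrome.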
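Wherever Hepatotoxicity (benign tumour) is given: value is a count of indexed literature references citing a benign tumour confirmed by histopathology.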
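Wherever Hepatotoxicity (choleostasis) is given: human cholestatic liver injury, shown by histopathology or by peak ALT or AST elevation over alkaline phosphatase ratio below 2, value counts indexed literature reports.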
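Wherever Hepatotoxicity (chronic liver disease) is given: chronic liver injury confirmed by histopathology or persistently raised serum aminotransferase activity beyond 6 months, value given as the count of indexed literature references.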
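Wherever Hepatotoxicity (cirrhosis) is given: value is a count of indexed literature references reporting cirrhosis confirmed by histopathology.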
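Wherever Hepatotoxicity (cytolytic) is given: human cytolytic liver injury, shown by histopathology or by a ratio above 5 of peak ALT or AST elevation to alkaline phosphatase elevation, value counts indexed references.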
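Wherever Hepatotoxicity (granulomatous hepatitis) is given: value is a count of indexed literature references reporting granulomatous liver disease confirmed by histopathology.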
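Wherever Hepatotoxicity (malignant tumour) is given: malignant tumour confirmed by histopathology, value gives the count of indexed literature references reporting it.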
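Wherever Hepatotoxicity (severe hepatitis) is given: human clinical data: severe hepatitis, meaning potentially life-threatening liver failure or clinically observed cases, the value counts how many indexed literature references report it.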
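Wherever Hepatotoxicity (steatosis) is given: steatosis confirmed by histopathology, value is the count of indexed references.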

As for `CCOc1cc(CC(=O)N[C@@H](CC(C)C)c2ccccc2N2CCCCC2)ccc1C(=O)O` [REPAGLINIDE], the “Hepatotoxicity (moderate)” value stood at 1.5% in [1] (Liver) and 1 in data set [3]. In addition, the entries for the “Hepatotoxicity (acute)” value in data set [2] (Liver) and in data set [4] were 0% and 0, respectively. In addition, in [5], the “Hepatotoxicity (cytolytic)” value came to 0. In data set [6], the “Hepatotoxicity (choleostasis)” value turned out to be 0. In addition, the “Hepatotoxicity (severe hepatitis)” value in data set [7] (Liver) was determined as 0. In data set [8], the “Hepatotoxicity (chronic liver disease)” value is given as 0. In addition, in [9], the “Hepatotoxicity (cirrhosis)” value is reported as 0. The “Hepatotoxicity (granulomatous hepatitis)” value in [10] is recorded as 0. In [11], the “Hepatotoxicity (association with vascular disease)” value is 0. Moreover, in [12], the “Hepatotoxicity (steatosis)” value is recorded as 0. Moreover, the “Hepatotoxicity (malignant tumour)” value in [13] is reported as 0. In addition, the “Hepatotoxicity (benign tumour)” value in data set [14] is recorded as 0.

On to `CN(C)CCN(Cc1ccccc1)c1ccccn1` [TRIPELENNAMINE], for which the “Hepatotoxicity (moderate)” value in data set [1] is listed as 0%; in data set [3], 0. Besides, the “Hepatotoxicity (acute)” value in data set [2] was 0%; in [4], 1. Moreover, the “Hepatotoxicity (cytolytic)” value in data set [5] was found to be 1. In addition, the “Hepatotoxicity (choleostasis)” value in data set [6] came out at 1. Besides, the “Hepatotoxicity (severe hepatitis)” value in data set [7] is on record as 0. The “Hepatotoxicity (chronic liver disease)” value in [8] came out at 0. Further, the “Hepatotoxicity (cirrhosis)” value in data set [9] turned out to be 0. Further, the “Hepatotoxicity (granulomatous hepatitis)” value in [10] was determined as 0. Besides, the “Hepatotoxicity (association with vascular disease)” value in data set [11] is given as 0. In addition, the “Hepatotoxicity (steatosis)” value in data set [12] was determined as 0. For the same compound, the “Hepatotoxicity (malignant tumour)” value in data set [13] is 0. Further, in data set [14], the “Hepatotoxicity (benign tumour)” value turned out to be 0.

On to `CN1C(CCl)Nc2cc(Cl)c(S(N)(=O)=O)cc2S1(=O)=O` (stereo unspecified) [METHYCLOTHIAZIDE], for which the “Hepatotoxicity (moderate)” value in data set [1] was found to be 0%; in data set [3], 1. The “Hepatotoxicity (acute)” value in data set [2] was determined as 0%; in data set [4], 0. Further, in [5], the “Hepatotoxicity (cytolytic)” value was 0. In data set [6], the “Hepatotoxicity (choleostasis)” value is 0. In addition, the “Hepatotoxicity (severe hepatitis)” value in [7] amounted to 0. Further, in [8], the “Hepatotoxicity (chronic liver disease)” value was determined as 0. For the same compound, in data set [9], the “Hepatotoxicity (cirrhosis)” value was 0. For the same compound, the “Hepatotoxicity (granulomatous hepatitis)” value in [10] came out at 0. For the same compound, the “Hepatotoxicity (association with vascular disease)” value in [11] was 0. Moreover, the “Hepatotoxicity (steatosis)” value in data set [12] came to 0. In addition, the “Hepatotoxicity (malignant tumour)” value in data set [13] worked out at 0. Moreover, the “Hepatotoxicity (benign tumour)” value in data set [14] turned out to be 0.

Regarding `Clc1ccc(COC(Cn2ccnc2)c2ccc(Cl)cc2Cl)c(Cl)c1` (stereo unspecified) [MICONAZOLE], the “Hepatotoxicity (moderate)” value came out at 0% in data set [1] and 2 in [3]. Further, the figures for the “Hepatotoxicity (acute)” value in data set [2] and in data set [4] were 0% and 0, respectively. Further, in [5], the “Hepatotoxicity (cytolytic)” value was 0. Also, the “Hepatotoxicity (choleostasis)” value in [6] is given as 0. Moreover, in data set [7], the “Hepatotoxicity (severe hepatitis)” value was 0. Also, the “Hepatotoxicity (chronic liver disease)” value in [8] was 0. The “Hepatotoxicity (cirrhosis)” value in data set [9] is on record as 0. Further, the “Hepatotoxicity (granulomatous hepatitis)” value in [10] turned out to be 0. Besides, the “Hepatotoxicity (association with vascular disease)” value in data set [11] is given as 0. Besides, the “Hepatotoxicity (steatosis)” value in data set [12] came out at 0. In data set [13], the “Hepatotoxicity (malignant tumour)” value was 0. Also, in data set [14], the “Hepatotoxicity (benign tumour)” value is listed as 0.

Take `CC/C=C(\C(=O)N[C@@H]1C(=O)N2C(C(=O)OCOC(=O)C(C)(C)C)=C(COC(N)=O)CS[C@H]12)c1csc(N)n1`: the entries for the “Hepatotoxicity (moderate)” value in [1] and in [3] were 33.3% and 53, respectively. Further, the “Hepatotoxicity (acute)” value in data set [2] amounted to 0%; in data set [4] it was 0. In addition, the “Hepatotoxicity (cytolytic)” value in [5] is listed as 0. The “Hepatotoxicity (choleostasis)” value in data set [6] stood at 0. Moreover, in [7], the “Hepatotoxicity (severe hepatitis)” value is 0. In data set [8], the “Hepatotoxicity (chronic liver disease)” value is on record as 0. In addition, the “Hepatotoxicity (cirrhosis)” value in [9] is 0. The “Hepatotoxicity (granulomatous hepatitis)” value in data set [10] is on record as 0. The “Hepatotoxicity (association with vascular disease)” value in data set [11] is given as 0. Moreover, the “Hepatotoxicity (steatosis)” value in data set [12] came out at 0. The “Hepatotoxicity (malignant tumour)” value in [13] is 0. Moreover, in data set [14], the “Hepatotoxicity (benign tumour)” value turned out to be 0.

Consider `O=C(Nc1cccc2c(=O)cc(-c3nnn[nH]3)oc12)c1ccc(OCCCCc2ccccc2)cc1`, for which the “Hepatotoxicity (moderate)” value in [1] was found to be 2.1%; in data set [3] it was 1. For the same compound, the results for the “Hepatotoxicity (acute)” value in [2] and in [4] were 0% and 0, respectively. In [5], the “Hepatotoxicity (cytolytic)” value was 0. Also, the “Hepatotoxicity (choleostasis)” value in data set [6] came out at 0. For the same compound, the “Hepatotoxicity (severe hepatitis)” value in [7] is listed as 0. Further, in data set [8], the “Hepatotoxicity (chronic liver disease)” value stood at 0. Moreover, in data set [9], the “Hepatotoxicity (cirrhosis)” value was determined as 0. Besides, the “Hepatotoxicity (granulomatous hepatitis)” value in data set [10] worked out at 0. In addition, the “Hepatotoxicity (association with vascular disease)” value in data set [11] is 0. Moreover, the “Hepatotoxicity (steatosis)” value in [12] came out at 0. In addition, the “Hepatotoxicity (malignant tumour)” value in [13] is 0. For the same compound, in data set [14], the “Hepatotoxicity (benign tumour)” value was 0.

On to `CC(C)C[C@H](NC(=O)[C@@H](O)[C@H](N)Cc1ccccc1)C(=O)O` [UBENIMEX], for which the “Hepatotoxicity (moderate)” value in data set [1] was 2.4%; in data set [3], 1. Moreover, the “Hepatotoxicity (acute)” value in data set [2] stood at 0%; in data set [4] it was 0. Besides, the “Hepatotoxicity (cytolytic)” value in data set [5] stood at 0. Moreover, the “Hepatotoxicity (choleostasis)” value in data set [6] is 0. The “Hepatotoxicity (severe hepatitis)” value in [7] was determined as 0. The “Hepatotoxicity (chronic liver disease)” value in data set [8] is given as 0. Moreover, the “Hepatotoxicity (cirrhosis)” value in data set [9] turned out to be 0. Further, the “Hepatotoxicity (granulomatous hepatitis)” value in data set [10] turned out to be 0. Moreover, the “Hepatotoxicity (association with vascular disease)” value in [11] was 0. In data set [12], the “Hepatotoxicity (steatosis)” value came out at 0. For the same compound, the “Hepatotoxicity (malignant tumour)” value in data set [13] is reported as 0. Also, in data set [14], the “Hepatotoxicity (benign tumour)” value amounted to 0.

As to `O=C(O)P(=O)(O)O` [FOSCARNET], the “Hepatotoxicity (moderate)” value is 12% in data set [1] and 2 in [3]. Also, the results for the “Hepatotoxicity (acute)” value in [2] and in data set [4] were 0% and 0, respectively. The “Hepatotoxicity (cytolytic)” value in [5] is on record as 0. Also, the “Hepatotoxicity (choleostasis)” value in data set [6] was determined as 0. The “Hepatotoxicity (severe hepatitis)” value in [7] was 0. Besides, the “Hepatotoxicity (chronic liver disease)” value in data set [8] was 0. Besides, the “Hepatotoxicity (cirrhosis)” value in data set [9] was determined as 0. Further, the “Hepatotoxicity (granulomatous hepatitis)” value in [10] was 0. Further, the “Hepatotoxicity (association with vascular disease)” value in data set [11] was 0. Moreover, the “Hepatotoxicity (steatosis)” value in [12] worked out at 0. The “Hepatotoxicity (malignant tumour)” value in data set [13] is 0. Besides, the “Hepatotoxicity (benign tumour)” value in [14] worked out at 0.

For the compound DENILEUKIN DIFTITOX, the results for the “Hepatotoxicity (moderate)” value in data set [1] and in data set [3] were 45% and 3, respectively. Moreover, the “Hepatotoxicity (acute)” value in data set [2] stood at 10%; in data set [4] it was 1. Moreover, the “Hepatotoxicity (cytolytic)” value in data set [5] came out at 1. In [6], the “Hepatotoxicity (choleostasis)” value is recorded as 0. Moreover, in data set [7], the “Hepatotoxicity (severe hepatitis)” value stood at 0. Also, the “Hepatotoxicity (chronic liver disease)” value in [8] is given as 0. In addition, the “Hepatotoxicity (cirrhosis)” value in data set [9] amounted to 0. Moreover, the “Hepatotoxicity (granulomatous hepatitis)” value in [10] was 0. Besides, in data set [11], the “Hepatotoxicity (association with vascular disease)” value was 0. Moreover, in data set [12], the “Hepatotoxicity (steatosis)” value was 0. In addition, the “Hepatotoxicity (malignant tumour)” value in data set [13] came to 0. Moreover, the “Hepatotoxicity (benign tumour)” value in data set [14] is given as 0.
